Test results: patent publication US20080280817A1, “MODIFIED AMINO ACID FOR THE INHIBITION OF PLATELET AGGREGATION” (NOVARTIS AG, priority 2002, published 2008)

Columns and labels:
Assay type in all cases: cell-based, human
[1] = system: platelet rich plasma (PRP); assay: Addition of 5-CNAC alone to PRP; platelet morphology
Protocol: (§1) Freshly drawn venous blood from healthy volunteers is collected into 0.1 vol. […] trisodium citrate. The donors have not taken any medication during two weeks prior to blood collection. PRP is prepared by centrifugation of the freshly drawn blood (150 g, 15 minutes at 22° C.) and the final platelet concentration is standardized at 200 000 cell/μL by dilution in autologous platelet-free plasma, prepared by centrifugation (1200 g, 10 minutes at 22° C.). The supernatant is collected. Samples of PRP are pre-incubated for 1 minute (22° C.) with varying concentrations of 5-CNAC in saline (stored at −20° C.).
In order to assess the inhibitory effect of 5-CNAC on platelet aggregation, the following studies are performed. Samples of 0.400 mL PRP containing 5-CNAC are prepared as above. To these samples is added 0.005 mL of an aggregation stimulator which is either ADP (Roche Molecular Biochemicals, Mannheim) or collagen (Horm Chemie, Munich). The final concentrations of either the ADP or collagen are as indicated in the “Results” section. […] The extent of aggregation is measured by expressing the maximal difference in optical density (independent of the time after the addition of the aggregation stimulator, i.e., either ADP or collagen) and normalized taking the control curves (without 5-CNAC) as an internal standard set at 100%.

[2] = system: platelet rich plasma (PRP); assay: ADP-induced platelet aggregation in PRP (aggregometer, optical density)
Protocol: as §1
(§2) In order to assess the inhibitory effect of 5-CNAC on platelet aggregation, the following studies are performed. Samples of 0.400 mL PRP containing 5-CNAC are prepared as above. To these samples is added 0.005 mL of an aggregation stimulator which is either ADP (Roche Molecular Biochemicals, Mannheim) or collagen (Horm Chemie, Munich). The final concentrations of either the ADP or collagen are as indicated in the “Results” section. Aggregation studies are performed in a Chronolog 4 channel aggregometer (type CH570VS-CH810). The aggregometer automatically calibrates the donor-dependent difference in optical density between platelet-free plasma (0% optical density) and the PRP (100% optical density) of a particular donor. The extent of aggregation is measured by expressing the maximal difference in optical density (independent of the time after the addition of the aggregation stimulator, i.e., either ADP or collagen) and normalized taking the control curves (without 5-CNAC) as an internal standard set at 100%.

[3] = system: platelet rich plasma (PRP); assay: Collagen-stimulated platelet aggregation in PRP (aggregometer, optical density)
Protocol: as §1, §2

Structure (SMILES): O=C(O)CCCCCCCNC(=O)c1cc(Cl)ccc1O [5-CNAC, N-(5-chlorosalicyloyl)-8-aminocaprylic acid]
- triggering of platelet aggregation by the compound alone ([1]; 5-CNAC alone added to PRP, no stimulator): does not trigger platelet aggregation
- effect on platelet morphology (swirling of the cells) ([1]; PRP): does not alter platelet morphology
- inhibition of platelet aggregation at suboptimal ADP stimulation ([2]; 3 μM and 2 μM ADP compared with 5 μM ADP): platelet aggregation is inhibited by lower concentrations of 5-CNAC
- concentration at which inhibition of platelet aggregation becomes apparent ([2]; 5 μM ADP (maximal stimulation), PRP from 12 healthy subjects): ≥ 2 µM
- phase of the aggregation curve in which inhibition is seen ([2]; all concentrations of ADP tested): evident in the second phase of the aggregation curve, but is not observed in the initial phase
- change in cell shape upon ADP addition (increase in optical density) ([2]; in the presence of 5-CNAC): undisturbed
- inhibition of secondary aggregation ([2]; later part of the aggregation curve): dose-dependently inhibits the later part of the aggregation curve
- concentration at which inhibition is evident ([3]; 1 μg/mL collagen): ≥ 50 µM
- concentration showing platelet aggregation inhibition ([3]; 2 μg/mL collagen, one individual): about 1 mM
- concentration giving some inhibition of platelet aggregation ([3]; 2.5 μg/mL collagen, PRP of one individual, not at lower concentrations): 200 µM
- concentration at which inhibition of platelet aggregation becomes detectable ([3]; 5 μg/mL collagen): about 1 mM
- effect on platelets (aggregation) ([3]; 5 μg/mL collagen, 100 μM 5-CNAC): unaffected
- phase of the aggregation curve in which inhibition is seen ([3]; collagen-stimulated aggregation): becomes apparent in the second phase of the aggregation curve
